How the values were obtained:
[1] = target: CDK1/Cyclin B1 (Homo sapiens, UniProt P06493); test: CDK1/Cyclin B1 Biochemical Assay (TR-FRET), 1 mM ATP; conditions: 0.15 μM Rb (Ser780)-biotin substrate, pH7.0, 60 min preincubation, 90 min reaction, room temperature
Method: (§1) CDK2/Cyclin E1 and CDK1/Cyclin B1 Biochemical Assays
(§2) Compounds disclosed herein were tested for inhibition of CDK2/Cyclin E1 or CDK1/Cyclin B1 kinase in an assay based on the time-resolved fluorescence-resonance energy transfer (TR-FRET) methodology. The assay was carried out in 384-well low volume black plates in a reaction mixture containing CDK2/Cyclin E1 or CDK1/Cyclin B1, 1 mM ATP for CDK2/Cyclin E1 and CDK1/Cyclin B1, 0.15 μM Rb (Ser780)-biotin substrate and 0-10 μM compound in buffer containing 50 mM HEPES pH7.0, 0.02% NaN3, 0.01% BSA, 0.1 mM Orthovanadate, 50 mM MgCl2, 1 mM DTT and 0.005% Tween-20. The kinase was incubated with compound for 60 minutes at room temperature and the reaction was initiated by the addition of ATP and Rb (Ser780)-biotin substrate. After reaction at room temperature for 90 minutes, an equal volume of stop/detection solution was added according to the manufacture's instruction (Cisbio Bioassays). The stop/detection solution contained Streptavidin-XL665 and Anti-pRb (Ser780) mAb-Eu Cryptate in Detection buffer (Cisbio Bioassays). Plates were incubated at room temperature for 60 minutes, and the TR-FRET signals (ex337 nm, em665 nm/620 nm) were recorded on a PHERAstar FSX plate reader (BMG Labtech). The inhibition percentage of CDK2/Cyclin E1 or CDK1/Cyclin B1 kinase activity in presence of increasing concentrations of compounds was calculated based on the ratio of fluorescence at 665 nm to that at 620 nm. The IC50 for each compound was derived from fitting the data to the four-parameter logistic equation by Dotmatics.

[2] = target: CDK2/Cyclin E1 (Homo sapiens, UniProt P24941); test: CDK2/Cyclin E1 Biochemical Assay (TR-FRET), 1 mM ATP; conditions: 0.15 μM Rb (Ser780)-biotin substrate, pH7.0, 60 min preincubation, 90 min reaction, room temperature
Method: as §1, §2

Sequence of CDK1/Cyclin B1 (P06493 whole entry): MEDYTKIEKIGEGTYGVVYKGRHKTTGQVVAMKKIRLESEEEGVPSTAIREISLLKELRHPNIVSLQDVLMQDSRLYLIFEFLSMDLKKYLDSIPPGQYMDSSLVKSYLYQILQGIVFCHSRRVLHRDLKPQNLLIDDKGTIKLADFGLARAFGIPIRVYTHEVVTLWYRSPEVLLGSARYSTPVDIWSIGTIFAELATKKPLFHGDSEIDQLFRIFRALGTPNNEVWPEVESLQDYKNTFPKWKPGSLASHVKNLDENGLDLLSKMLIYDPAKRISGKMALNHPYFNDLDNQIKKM
Sequence of CDK1/Cyclin B1 (P14635 whole entry partner): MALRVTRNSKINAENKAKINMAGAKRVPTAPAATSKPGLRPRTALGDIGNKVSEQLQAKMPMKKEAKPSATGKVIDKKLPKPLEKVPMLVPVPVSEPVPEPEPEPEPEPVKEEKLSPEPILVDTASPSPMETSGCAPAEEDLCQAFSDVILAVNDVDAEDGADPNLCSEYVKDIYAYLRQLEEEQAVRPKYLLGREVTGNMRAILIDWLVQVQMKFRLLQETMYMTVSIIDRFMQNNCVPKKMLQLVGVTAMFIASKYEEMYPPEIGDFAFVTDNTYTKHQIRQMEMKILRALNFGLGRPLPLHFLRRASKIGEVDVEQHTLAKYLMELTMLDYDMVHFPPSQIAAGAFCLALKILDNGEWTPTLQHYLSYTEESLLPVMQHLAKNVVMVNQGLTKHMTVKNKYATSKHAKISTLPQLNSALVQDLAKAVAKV

## CC1(NC(=O)O[C@H]2CC[C@@H](c3cc(Nc4ccc5c(c4F)CS(=O)(=O)N5)n[nH]3)C2)CCCC1 (relative stereo) [Example 439, cis-3-(3-((4-fluoro-2,2-dioxido-1,3-dihydrobenzo[c]isothiazol-5-yl)amino)-1H-pyrazol-5-yl)cyclopentyl(1-methylcyclopentyl)carbamate]
[1]
  IC50: 215 nM
[2]
  IC50: 2.7 nM

## CC(C)(O)CN1c2ccc(Nc3cc([C@@H]4CC[C@H](OC(=O)NC5(C)CC5)C4)[nH]n3)c(F)c2CS1(=O)=O (relative stereo) [Example 435, cis-3-(3-((4-fluoro-1-(2-hydroxy-2-methylpropyl)-2,2-dioxido-1,3-dihydrobenzo[c]isothiazol-5-yl)amino)-1H-pyrazol-5-yl)cyclopentyl(1-methylcyclopropyl)carbamate]
[1]
  IC50: 423 nM
[2]
  IC50: 1.3 nM

## CN1c2ccc(Nc3cc([C@@H]4CC[C@H](OC(=O)NCC5(O)CC5)C4)[nH]n3)cc2CS1(=O)=O (relative stereo) [Example 426, cis-3-(3-((1-methyl-2,2-dioxido-1,3-dihydrobenzo[c]isothiazol-5-yl)amino)-1H-pyrazol-5-yl)cyclopentyl((1-hydroxycyclopropyl)methyl)carbamate]
[1]
  IC50: 4870 nM
[2]
  IC50: 51 nM

## CC(C)(CO)NC(=O)O[C@H]1CC[C@@H](c2cc(Nc3ccc4c(c3F)CN(C3CC3)S4(=O)=O)n[nH]2)C1 (single isomer, unassigned) [Example 359a, cis-3-(3-((2-cyclopropyl-4-fluoro-1,1-dioxido-2,3-dihydrobenzo[d]isothiazol-5-yl)amino)-1H-pyrazol-5-yl)cyclopentyl(1-hydroxy-2-methylpropan-2-yl)carbamate]
[1]
  IC50: 8020 nM
[2]
  IC50: 14 nM

## O=C(NC12CC(C1)C2)O[C@H]1CC[C@@H](c2cc(Nc3cc4c(cc3F)S(=O)(=O)NC4)n[nH]2)C1 (single isomer, unassigned) [Example 422b, cis-3-(3-((6-fluoro-1,1-dioxido-2,3-dihydrobenzo[d]isothiazol-5-yl)amino)-1H-pyrazol-5-yl)cyclopentyl bicyclo[1.1.1]pentan-1-ylcarbamate]
[1]
  IC50: 980 nM
[2]
  IC50: 1 nM

## CN(C(=O)O[C@H]1CC[C@@H](c2cc(Nc3ccc4c(c3F)CNS4(=O)=O)n[nH]2)C1)C1CCOC1 (relative stereo) [Example 437, cis-3-(3-((4-fluoro-1,1-dioxido-2,3-dihydrobenzo[d]isothiazol-5-yl)amino)-1H-pyrazol-5-yl)cyclopentyl methyl(tetrahydrofuran-3-yl)carbamate]
[1]
  IC50: > 10000 nM
[2]
  IC50: 249 nM

## O=C(N[C@@H]1C[C@H]1O)O[C@H]1CC[C@@H](c2cc(Nc3ccc4c(c3F)CNS4(=O)=O)n[nH]2)C1 (relative stereo) [Example 442, cis-3-(3-((4-fluoro-1,1-dioxido-2,3-dihydrobenzo[d]isothiazol-5-yl)amino)-1H-pyrazol-5-yl)cyclopentyl((1R,2R)-2-hydroxycyclopropyl)carbamate]
[1]
  IC50: 2990 nM
[2]
  IC50: 55 nM

## CN(C(=O)O[C@H]1CC[C@@H](c2cc(Nc3cc4c(cc3F)S(=O)(=O)NC4)n[nH]2)C1)C1CCOC1 (relative stereo) [Example 440, cis-3-(3-((6-fluoro-1,1-dioxido-2,3-dihydrobenzo[d]isothiazol-5-yl)amino)-1H-pyrazol-5-yl)cyclopentyl methyl(tetrahydrofuran-3-yl)carbamate]
[1]
  IC50: > 10000 nM
[2]
  IC50: 189 nM

## CC1(NC(=O)O[C@H]2CC[C@@H](c3cc(Nc4cc5c(cc4F)S(=O)(=O)NC5)n[nH]3)C2)CCCC1 (relative stereo) [Example 446, cis-3-(3-((6-fluoro-1,1-dioxido-2,3-dihydrobenzo[d]isothiazol-5-yl)amino)-1H-pyrazol-5-yl)cyclopentyl(1-methylcyclopentyl)carbamate]
[1]
  IC50: 1400 nM
[2]
  IC50: 1.7 nM

## CC(C)NC(=O)O[C@H]1CC[C@@H](c2cc(Nc3ccc4c(c3F)CS(=O)(=O)N4CC(C)(C)O)n[nH]2)C1 (single isomer, unassigned) [Example 254a, cis-3-(3-((4-fluoro-1-(2-hydroxy-2-methylpropyl)-2,2-dioxido-1,3-dihydrobenzo[c]isothiazol-5-yl)amino)-1H-pyrazol-5-yl)cyclopentyl isopropylcarbamate]
[1]
  IC50: 3740 nM
[2]
  IC50: 12 nM

## O=C(NC12CC(C1)C2)O[C@H]1CC[C@@H](c2cc(Nc3cc4c(cc3F)S(=O)(=O)NC4)n[nH]2)C1 (single isomer, unassigned) [Example 422a, cis-3-(3-((6-fluoro-1,1-dioxido-2,3-dihydrobenzo[d]isothiazol-5-yl)amino)-1H-pyrazol-5-yl)cyclopentyl bicyclo[1.1.1]pentan-1-ylcarbamate]
[1]
  IC50: 3250 nM
[2]
  IC50: 2.3 nM

## CC1(NC(=O)O[C@H]2CC[C@@H](c3cc(Nc4cc5c(cc4F)S(=O)(=O)NC5)n[nH]3)C2)CCC1 (relative stereo) [Example 445, cis-3-(3-((6-fluoro-1,1-dioxido-2,3-dihydrobenzo[d]isothiazol-5-yl)amino)-1H-pyrazol-5-yl)cyclopentyl(1-methylcyclobutyl)carbamate]
[1]
  IC50: 1050 nM
[2]
  IC50: 1.8 nM

## CCCNC(=O)O[C@@H]1CC[C@H](c2cc(Nc3ccc4c(c3F)CS(=O)(=O)N4CC(C)(C)O)n[nH]2)C1 [Example 433a]
[1]
  IC50: 3100 nM
[2]
  IC50: 18 nM

## CC(C)NC(=O)O[C@H]1CC[C@@H](c2cc(Nc3ccc4c(c3F)CS(=O)(=O)N4CC(C)(C)O)n[nH]2)C1 (single isomer, unassigned) [Example 254b, cis-3-(3-((4-fluoro-1-(2-hydroxy-2-methylpropyl)-2,2-dioxido-1,3-dihydrobenzo[c]isothiazol-5-yl)amino)-1H-pyrazol-5-yl)cyclopentyl isopropylcarbamate]
[1]
  IC50: 1380 nM
[2]
  IC50: 8.9 nM

## CN1c2ccc(Nc3cc([C@@H]4CC[C@H](OC(=O)NC(C)(C)C)C4)[nH]n3)c(F)c2CS1(=O)=O (relative stereo) [Example 453, cis-3-(3-((4-fluoro-1-methyl-2,2-dioxido-1,3-dihydrobenzo[c]isothiazol-5-yl)amino)-1H-pyrazol-5-yl)cyclopentyl tert-butylcarbamate]
[1]
  IC50: 446 nM
[2]
  IC50: 0.9 nM

## [2H]C([2H])([2H])N1c2ccc(Nc3cc([C@@H]4CC[C@H](OC(=O)NC56CC(C5)C6)C4)[nH]n3)cc2CS1(=O)=O (relative stereo) [Example 455, cis-3-(3-((1-(methyl-d3)-2,2-dioxido-1,3-dihydrobenzo[c]isothiazol-5-yl)amino)-1H-pyrazol-5-yl)cyclopentyl bicyclo[1.1.1]pentan-1-ylcarbamate]
[1]
  IC50: 97 nM
[2]
  IC50: 0.9 nM

## O=C(NC12CC(O)(C1)C2)O[C@H]1CC[C@@H](c2cc(Nc3cc4c(cc3F)S(=O)(=O)NC4)n[nH]2)C1 (relative stereo) [Example 456, cis-3-(3-((6-fluoro-1,1-dioxido-2,3-dihydrobenzo[d]isothiazol-5-yl)amino)-1H-pyrazol-5-yl)cyclopentyl(3-hydroxybicyclo[1.1.1]pentan-1-yl)carbamate]
[1]
  IC50: 550 nM
[2]
  IC50: 0.5 nM

## CC(C)NC(=O)O[C@H]1CC[C@@H](c2cc(Nc3cc4c(cn3)S(=O)(=O)NC4)n[nH]2)C1 (relative stereo) [Example 425, cis-3-(3-((1,1-dioxido-2,3-dihydroisothiazolo[5,4-c]pyridin-5-yl)amino)-1H-pyrazol-5-yl)cyclopentyl isopropylcarbamate]
[1]
  IC50: > 10000 nM
[2]
  IC50: 1950 nM
